# Source: patent publication US6572896B1, “Methods for inhibiting cell motility” (A.T. Still University of Health Sciences, priority 1998, dated 2003)
# Values joined by “and” are separate entries in the source; they are usually repeats but may differ in a detail not shown here. Equal entries are not always repeated. Where two headings read alike, the source gives them in different places. Marks after values point to notes of the source that are not given here.
# Key:
# [1] = tested on: B16F10 melanoma cells; experiment: Motility assay in blind-well migration chambers with gelatin-coated filter; format: cell-based; details: for Motility with Verapamil (mean number of cells per filter): n = 2 filters
# [2] = tested on: A2058 human melanoma cells; details: cited from earlier work
# [3] = tested on: voltage-gated channels that control quantal neurotransmitter release; details: Gd^3+ up to 100 μM; cited from earlier work
# [4] = tested on: B16F10 cells; experiment: Trypan blue exclusion assay (cell viability)
# Procedure: A test was run to determine the toxicity of Gd^3+ on cells when exposed for seven hours. B16F10 cells were incubated for 12 hours with Gd^3+ at a concentration of 20 μM in the RPMI-E2 solution. A different batch of B16F10 cells were incubated for 12 hours without Gd^3+ in the RPMI-E2 solution. The cells were then examined with a Trypan blue exclusion assay.
# [5] = tested on: B16F10 cells; experiment: Cell growth after 12 hour Gd^3+ exposure and washout; format: cell-based; details: Gd^3+ 20 μM in RPMI-E2 12 hours, washed, then growth medium without Gd^3+
# Procedure: The potential long term effects of Gd^3+ on cell growth were determined. […] The cell growth was observed after the Gd^3+ was washed from the cells.
# [6] = tested on: B16F10 melanoma cells; experiment: Microscopic examination of cell morphology; format: cell-based; details: 4 hours
# Procedure: Cell morphology was examined under conditions that were used in the motility assays. B16F10 melanoma cells were cultured directly on gelatin coated glass cover slips (0.1% gelatin for 2 hours and then air dried) for 24 hours under standard cell culture conditions. Culture media was then removed and the cells were washed twice with phosphate buffered saline (PBS) before being exposed to either 0.54 mM, 5.4 mM, or 54 mM K^+ in iso-osmotic saline solutions that were based on the electrolyte composition of RPMI-1640 media. Some solutions also contained GdCl3 or TbCl3 in a concentration of 20 μM. The cells were incubated at 5% CO2 and 37° C. for 4 hours before cells were photographed using an Olympus (IMT-2) inverted microscope.
# In order to examine the effects of Gd^3+ and extracellular K^+ concentration on the morphology of the cells, B16F10 melanoma cells were grown under normal conditions on gelatin-coated glass coverslips. The cells were then washed twice with PBS and placed in solutions containing the following concentrations of K^+ and Gd^3+ for exposure periods of 4 hours: […]
# [7] = Gd^3+ 20 μM in RPMI-E2, 12 hours
# [8] = GdCl3 20 μM, RPMI-E2, normal K^+ and Ca^2+, seven hours, two independent runs
compound,measurement,setting,value
[Ca+2] [Ca^2+],increase in the motility of the cells,[1]; elevated Ca^2+ (4 mM) vs normal (0.4 mM),~20%
same,Motility (mean number of cells per filter),"[1]; extracellular Ca^2+ 0.4 mM (RPMI-E, normal), no bFGF",78 ± 4^b cells per filter
same,Motility (mean number of cells per filter),"[1]; extracellular Ca^2+ 4.0 mM (RPMI-E4Ca, elevated), no bFGF",100 ± 6 cells per filter
[Cl-].[Cl-].[Co+2] [CoCl2],inhibition of tumor cell motility,[2],completely ineffective
same,inhibition of cell motility,[1],approximately 87%
same,Motility (mean number of cells per filter),[1]; 2 mM,43 ± 4 cells per filter
[Cl][Gd]([Cl])[Cl] [GdCl3],effect on voltage-gated channels,[3],no effect
same,cells stained blue,[4]; [7],Less than 1%
same,viability versus cells not treated,[4]; [7],no difference in viability
same,Trypan Blue exclusion of vacuolated cells (membrane integrity),"[4]; after 20 μM Gd^3+, low K^+, 4 hours",vacuolated cells excluded dye
same,effect on cell growth after washout,[5],No obvious inhibitory effect on cell growth
same,Motility (mean number of cells per filter),"[1]; Gd 20 μM, K^+ 0.54 mM (RPMI-E2 low K^+)",240 ± 40^b cells per filter
same,Motility (mean number of cells per filter),"[1]; Gd 20 μM, K^+ 54.0 mM (RPMI-E2 high K^+)",113 ± 10 cells per filter
same,inhibition of cell motility,"[1]; GdCl3 20 μM, High Ca^2+ HEPES Ringer solution (Example 1)",71%
same,Motility (mean number of cells per filter),"[1]; GdCl3 20 μM, High Ca^2+ HEPES Ringer solution, 2 h preincubation + 5 h assay, bFGF",95 ± 6 cells per filter
same,Motility (mean number of cells per filter),[1]; [8],33 ± 6 cells per filter and 50 ± 10 cells per filter
same,reduction of motility,[1]; [8],73% and 75%
same,inhibition of cell motility,"[1]; Gd^3+ 20 μM, 0.54 mM K^+",83%
same,inhibition of cell motility,"[1]; Gd^3+ 20 μM, 54 mM K^+",90.5%
same,cell morphology,"[6]; 20 μM Gd^3+, low K^+ (0.54 mM)",rounded and flattened cells with prominent vacuoles
same,cell morphology,"[6]; 20 μM Gd^3+, normal K^+ (5.4 mM)","larger, rounded cells devoid of pseudopodia"
same,cell morphology,[6]; 20 μM in bathing solution,the cells had flattened and spread further
[K+] [K^+],Motility (mean number of cells per filter),"[1]; K^+ 0.54 mM, absence of Gd",1387 ± 103^b cells per filter
same,Motility (mean number of cells per filter),"[1]; K^+ 2.75 mM, absence of Gd",1164 ± 1006 cells per filter
same,Motility (mean number of cells per filter),"[1]; K^+ 3.87 mM, absence of Gd",591 ± 40 cells per filter
same,Motility (mean number of cells per filter),"[1]; K^+ 5.4 mM (normal, RPMI-E2), absence of Gd",475 ± 20 cells per filter
same,Motility (mean number of cells per filter),"[1]; K^+ 10.0 mM, absence of Gd",578 ± 15 cells per filter
same,Motility (mean number of cells per filter),"[1]; K^+ 16.25 mM, absence of Gd",494 ± 49 cells per filter
same,Motility (mean number of cells per filter),"[1]; K^+ 22.0 mM, absence of Gd",558 ± 25 cells per filter
same,Motility (mean number of cells per filter),"[1]; K^+ 27.5 mM, absence of Gd",471 ± 57 cells per filter
same,Motility (mean number of cells per filter),"[1]; K^+ 35.0 mM, absence of Gd",646 ± 65 cells per filter
same,Motility (mean number of cells per filter),"[1]; K^+ 54.0 mM, absence of Gd",1188 ± 50 cells per filter
same,cell morphology,"[6]; high K^+ (54 mM), no Gd^3+",rounder and exhibited pseudopodia that appeared blunted
same,cell morphology,"[6]; low K^+ (0.54 mM), no Gd^3+",slightly more cells were observed with distinct lamellipodia
"[Cl][Tb]([Cl])[Cl] [Tb^3+, TbCl3]",cell morphology,[6]; 20 μM in bathing solution,the cells had flattened and spread further
"COc1ccc(CCN(C)CCCC(C#N)(c2ccc(OC)c(OC)c2)C(C)C)cc1OC (centres unmarked) [Verapamil, verapamil, reference compound]",Motility with Verapamil (mean number of cells per filter),"[1]; verapamil 100 μM, 0.5 mM K^+",1116 cells per filter
same,Motility with Verapamil (mean number of cells per filter),"[1]; verapamil 100 μM, 5 mM K^+",434^b cells per filter and 519 cells per filter
same,Motility with Verapamil (mean number of cells per filter),"[1]; verapamil 100 μM, 50 mM K^+",1100 cells per filter
same,effect on motility,"[1]; verapamil 100 μM, control, high K^+ and low K^+ conditions",did not reduce motility in a way corresponding to the reduction produced by Gd^3+ and Co^2+
bFGF: Basic fibroblast growth factor used to enhance motility,Motility (mean number of cells per filter),[1]; bFGF 25 ng/ml in serum free RPMI-1640 in top well,180 ± 30 cells per filter
same,increase in the motility of melanoma cells,[1]; bFGF 25 ng/ml in serum free RPMI-1640 vs no bFGF,three-fold increase
